According to patent US20200129570A1, “Specific Bacterial Species and Metabolite That Improves Immune Checkpoint Inhibitor Therapy Efficacy” (BOARD OF REGENTS, THE UNIVERSITY OF TEXAS SYSTEM, priority 2017, published 2020):
Where “and” joins values, the source holds several entries; their conditions need not be identical. Identical values can stand only once. Entries after “also recorded” stand apart in the source; their conditions may differ.

Tested on: unresectable or metastatic melanoma
Test: Single-site correlative study: RECIST v1.1 response to immune checkpoint inhibitor therapy (ICT) in metastatic melanoma patients
Format: in vivo, human
Details: for RECIST Category / Change in tumor size (%): individual metastatic melanoma patient, one line per patient; for Change in tumor size (%): RECIST v1.1; for number of patients who responded: monotherapy, metastatic melanoma
Experimental: Patients and Methods. The study design was a single-site, correlative study of the effects of gut microbiota and metabolites on ICT efficacy in 39 patients. The study was approved by the University of Texas Southwestern Medical Center Institutional Review Board (IRB # STU012016-056). The study was conducted in accordance with the Declaration of Helsinki. The inventors enrolled patients with a histologic diagnosis of unresectable or metastatic melanoma that were scheduled to begin ICT and able to collect stool specimens, store them in a freezer and deliver them to the University of Texas Southwestern Cancer Center facility. In addition, patients had to have measurable disease by Response Evaluation Criteria in Solid Tumors (RECIST) v1.1. Tumor sizes were evaluated within 4 weeks prior to beginning therapy by exams, CT scans, and/or MRIs. […] After informed consent, stool samples were collected and immediately frozen until transferred to the University of Texas Southwestern Medical Center at pretreatment and various times post-therapy. Repeat exams and scans were obtained every 2-3 months. Demographics, antibiotic use, and probiotic exposure were recorded for each patient. Patient response, stable disease and progression were evaluated by RECIST v1.1 criteria as reported.

ipilimumab was tested, and the “RECIST Category” value was “Response”, the “Change in tumor size (%)” value was −100% and the “number of patients who responded” value was “One”.

With nivolumab the “RECIST Category” value was “Response”, the “Change in tumor size (%)” value was −70% and the “number of patients who responded” value was “One”.

pembrolizumab was tested, and the “RECIST Category” value was “Progression; also recorded: Response; also recorded: Stable”, the “Change in tumor size (%)” value was 53% and 81% and −36% and −68% and 100% (2×) and −27% and −14% and 0% and 125% and 46% and −48% and 131% and the “RECIST responders (patients/treated)” value (metastatic melanoma patients) was 3/13.
